Data taken from PMC2215435 (The Journal of General Physiology, 1981).
Read-outs that look alike come from different tables or passages of the source.

Tested on: potassium channel
Type: cell-based, squid Loligo pealei
Conditions: for rate constant of block b: calculated from Kd = l/b and tau decay (Table IV); for tau decay / blocking rate constant K (fit of current with Eq. 2) / unblocking rate constant L (fit of current with Eq. 2): 30 μM; for blocking rate constant K (fit of current with Eq. 2) / unblocking rate constant L (fit of current with Eq. 2): Fig. 1B
[1] = +100 mV, several experiments, Fig. 3B, r = 0.98

| Structure (SMILES) | rate constant of unblock l (+60 mV (Table IV)) | rate constant of block b (+60 mV) | rate constant of unblock l (+80 mV (Table IV)) | rate constant of block b (+80 mV) | rate constant of unblock l (+100 mV (Table IV)) | rate constant of block b (+100 mV) | tau decay (+100 mV, 6 °C) | tau decay (+100 mV, 8 °C) | tau decay (+100 mV, 16 °C) | blocking rate constant K (fit of current with Eq. 2) (+60 mV) | unblocking rate constant L (fit of current with Eq. 2) (+60 mV) | blocking rate constant K (fit of current with Eq. 2) (+100 mV) | unblocking rate constant L (fit of current with Eq. 2) (+100 mV) | time constant of decay of potassium current (tau decay) (10 μM, +100 mV) | time constant of decay of potassium current (tau decay) (33 μM, +100 mV) | time constant of decay of potassium current (tau decay) (100 μM, +100 mV) | b from straight line 1/tau decay = b[QA] + l [1] | l from straight line 1/tau decay = b[QA] + l [1] |
| --- | --- | --- | --- | --- | --- | --- | --- | --- | --- | --- | --- | --- | --- | --- | --- | --- | --- | --- |
| CCCCCCC[N+](CC)(CC)CC [C7TE, heptyltriethylammonium] | 0.071 ms-1 | 2.8 ms-1 mM-1 | 0.072 ms-1 | 3.4 ms-1 mM-1 | 0.063 ms-1 | 3.6 ms-1 mM-1 | – | – | – | – | – | – | – | – | – | – | – | – |
| CCCCCCCCC[N+](CC)(CC)CC [C9TE, nonyltriethylammonium] | 0.030 ms-1 | 5.5 ms-1 mM-1 | 0.028 ms-1 | 6.1 ms-1 mM-1 | 0.033 ms-1 | 7.3 ms-1 mM-1 | – | – | – | – | – | – | – | – | – | – | – | – |
| CCCCCCCCCC[N+](CC)(CC)CC [C10TE, decyltriethylammonium] | 0.019 ms-1 | 5.2 ms-1 mM-1 | 0.019 ms-1 | 6.0 ms-1 mM-1 | 0.023 ms-1 | 6.7 ms-1 mM-1 | 5.78 ms | 3.83 ms | 2.06 ms | – | – | – | – | – | – | – | – | – |
| CCCCCCCCCC[N+](CCO)(CCO)CCO [C10TEtoh, decyltriethanolammonium] | 0.084 ms-1 | 0.43 ms-1 mM-1 | 0.097 ms-1 | 0.55 ms-1 mM-1 | 0.110 ms-1 | 0.65 ms-1 mM-1 | – | – | – | – | – | – | – | – | – | – | – | – |
| CCCCCCCCCC[N+](CCC)(CCC)CCC [C10TP, decyltripropylammonium] | 0.015 ms-1 | 0.13 ms-1 mM-1 | 0.016 ms-1 | 0.15 ms-1 mM-1 | 0.015 ms-1 | 0.17 ms-1 mM-1 | – | – | – | – | – | – | – | – | – | – | – | – |
| CCCCCCCC[N+](CC)(CC)CCO [CsDEEtoh, octyldiethylethanolammonium] | – | 6.2 ms-1 mM-1 | – | 8.0 ms-1 mM-1 | – | 9.4 ms-1 mM-1 | – | – | – | 0.162 ms-1 | 0.118 ms-1 | 0.234 ms-1 | 0.112 ms-1 | – | – | – | – | – |
| CCCCCCCC[N+](CC)(CC)CCCO [CsDEProh, octyldiethylpropanolammonium] | 0.0236 ms-1 | 2.56 ms-1 mM-1 | 0.0308 ms-1 | 3.55 ms-1 mM-1 | 0.0262 ms-1 | 4.10 ms-1 mM-1 | – | – | – | – | – | – | – | 11.42 ms | 6.88 ms | 2.21 ms | 4.0 ms-1 mM-1 | 0.032 ms-1 |
| CCCCCCCC[N+](CC)(CC)CC [CsTE, octyltriethylammonium] | 0.038 ms-1 | 5.1 ms-1 mM-1 | 0.038 ms-1 | 5.5 ms-1 mM-1 | 0.043 ms-1 | 5.9 ms-1 mM-1 | – | – | – | – | – | – | – | – | – | – | – | – |
| CCCCCCCC[N+](CCC)(CCC)CCC [CsTP, octyltripropylammonium] | 0.021 ms-1 | 0.95 ms-1 mM-1 | 0.031 ms-1 | 1.22 ms-1 mM-1 | 0.039 ms-1 | 1.40 ms-1 mM-1 | – | – | – | – | – | – | – | – | – | – | – | – |
| CC[N+](CC)(CCO)CCCc1ccccc1 [~PDEEtoh, phenylpropyldiethylethanolammonium] | 0.024 ms-1 | 3.4 ms-1 mM-1 | 0.037 ms-1 | 3.9 ms-1 mM-1 | 0.033 ms-1 | 4.3 ms-1 mM-1 | – | – | – | – | – | – | – | – | – | – | – | – |
| CC[N+](CC)(CC)CCCc1ccccc1 [~PTE, phenylpropyltriethylammonium] | 0.015 ms-1 | 2.5 ms-1 mM-1 | 0.013 ms-1 | 2.7 ms-1 mM-1 | 0.025 ms-1 | 3.5 ms-1 mM-1 | – | – | – | – | – | – | – | – | – | – | – | – |
